Laboratory results reported in patent US7070942B2, “Method of inducing or enhancing chondrogenesis with extracellular matrix containing GDF-5” (DePuy Spine, Inc., priority 1998, dated 2006).

Tests used:
[1] = test system: GDF-5/type I collagen-induced chondrogenesis; assay: Inhibitors of intracellular signaling mediators on GDF-5/type I collagen-induced chondrogenesis; type: cell-based; details: GDF-5 in the context of type I collagen
Excerpt: The molecular signaling mechanism by which GDF-5 induces chondrogenesis in the context of type I collagen was also examined using well-characterized inhibitors of intracellular signaling mediators. […] The known inhibitory effect of rapamycin on activation of p70S6 kinase indicate that GDF-5/type I collagen-induced chondrogenesis is mediated through p70S6 kinase activation.

FRC cells [2] = assay: Semiquantitative PCR of aggrecan, type II collagen and type I collagen mRNA in FRC culture treated with GDF-5 in the presence of type I collagen; type: cell-based, rat; details: FRC with GDF-5 in the presence of type I collagen
Excerpt: To examine correlation of changes in cellular morphology with the process of chondrogenesis, total cellular RNA and protein were isolated from FRC culture treated with GDF-5 in the presence of type I collagen. Total cellular RNA isolated from FRC cells was subjected to a semiquantitative PCR analysis using specific primers designed to amplify aggrecan, type II collagen or type I collagen. […] Under these conditions, type I collagen mRNA expression decreased by about 20%. The expression of aggrecan and type II collagen was confirmed using slot blot analysis.

rat limb bud cells = details: cited from earlier work
[3] = test system: rat osteoprogenitor cells ROB-C26; details: cited from earlier work
FRC cells [4] = assay: FRC in 3D collagen-based matrices of different porosity, with or without hyaluronic acid coating, semi-quantitative PCR; type: cell-based, rat; details: only in matrices coated with hyaluronic acid with the highest porosity (about 300 micron); GDF-5 100 ng/ml, 3 weeks
Method: Each matrix composite was either coated with or without hyaluronic acid, a major component of cartilage. The implants were then seeded with 1×10^5 cells per implant and cultured for 3 weeks in the presence of GDF-5 (100 ng/ml). Total RNA extracted from each implant were then subjected to semi-quantitative PCR analysis. […] Together these findings indicate that GDP-5 chondrogenesis activity is fully and potently synergized by a matrix which contain 1) high pore size (about 100-300 micron); and 2) is composed of type I collagen which is coated with hyaluronic acid.

FRC [5] = assay: FRC seeded in porous type I collagen matrix, RT-PCR and histology with alcian or Toludine blue staining; type: cell-based, rat; details: GDF-5 100 ng/ml, 3 weeks
Method: A porous matrix fabricated from type I collagen was seeded by, 1×10^5 cell per implant (2×3×3 mm). Cells embedded in matrices were then cultured for 3 weeks in culture supplemented with or without GDF-5 (100 ng/ml). Total RNA isolated from each implant were then subjected to RT-PCR. […] In parallel the implant material was subject to histological evaluation followed by alcian or Toludine blue staining. […] Under these conditions FRC cells were not able to proliferate and differentiate in the ECM in the absence of GDF-5 as measured by histological evaluation total DNA, RNA or protein content.

FRC cells [6] = assay: Immunoblot of total cell lysates for type II collagen or aggrecan; type: cell-based, rat
Method: Total cell lysates (100 ug) were electrophoretically separated on a 8% or 5% SDSPAGE, transferred to immobilon-P and immunoblotted using antibody specific to type II collagen or aggrecan.

[7] = test system: heterodimer of receptor for BMPs; details: cited from earlier work
[8] = test system: fetal rat calvarial cells (FRC's); assay: Fetal rat calvarial cells plated on purified extracellular matrix proteins with GDF-5; chondrogenic nodule formation, alcian blue stain; type: cell-based; details: GDF-5 100 ng/ml
Method: To show in vitro application, fetal rat calvarial cells (FRC's) were plated on various purified extracellular matrix proteins in the presence of recombinant human GDF-5 (100 ng/ml) for 3 weeks and scored for differentiation at the level of morphology, overall proteoglycan synthesis and deposition, and aggrecan and type II collagen expression. […] Chondrogenic nodules stained heavily with alcian blue and were positive for type II collagen and aggrecan-expression, as judged by immunohistochemical and transcriptional analyses. Cells in monolayer that surround the nodules were negative for the chondrogenic markers.
Plastic plates were first coated with different ECM proteins including type I and II collagen, type IV collagen, or fibronectin. […] Plastic culture 12 well (Costar, Cambridge, Mass.) were coated with 0.01% (w/v) of the indicated extracellular matrix proteins for 2 hours at 37° C. After removal of nonadsorbant protein, fetal rat calvarial cells were plated at a density of 2×10^5 cells/well in DMEM containing 10% FBS. Culture plates were then maintained for 21 days in culture media supplemented with or without GDF-5 (100 ng/ml). Plates were then stained overnight with alcian blue stain (0.5% w/v in 3% acetic acid), washed and photographed. For quantitation of alcian blue, cells were solubilized in 8M urea, and the amount of stain was quantitated using spectrophotometer (Molecular Devices, Sunnyvale, Calif.).

Sprague-Dawley rats = assay: Rat soft tissue implants, intramuscular, alkaline phosphatase activity and histology at 14 days; type: in vivo
Excerpt: In vivo activity of rhGDF-5 on collagen-based matrices.
In Vivo Assays, Rat Soft Tissue Implants: Matrix/growth factor combinations were implanted either subcutaneously in the thoracic region or intramuscularly in posterior tibial muscle pouches created by blunt dissection in 8 week old male Sprague-Dawley rats. At 14 days post-surgery, implants were harvested, weighed and processed for routine histology (fixed in 10% formalin, paraffin-embedded, sectioned to 6 μm, and hematoxylin and eosin stained). Alternatively, implants were extracted and assayed for alkaline phosphatase activity.

MC3T3-E1 cells = details: well differentiated osteoblastic MC3T3-E1 cells; cited from earlier work
FRC [9] = assay: Chondrogenesis by monochromatic staining of FRC cultured in the presence of type I collagen and various growth factors; type: cell-based, rat; details: FRC in the presence of type I collagen
Method: The growth and differentiation factor-induced chondrogenesis is highly specific to GDF-5. It was shown that ECM-dependent chondrogenesis by GDF-5 is highly specific, by evaluating the ability of several mitogens and prototype differentiation factors under the following conditions. Chondrogenesis was assessed by monochromatic staining of FRC cultured in the presence of type I collagen and various growth factors.

## CNc1ccc2oc(C[C@H]3O[C@@]4(CC[C@H]3C)O[C@H]([C@H](C)C(=O)c3ccc[nH]3)[C@H](C)C[C@H]4C)nc2c1C(=O)O [A23187]
[1]
  inhibition of ligand-dependent chondrogenesis: completely inhibited

## O=C(O)CN(CCOCCOCCN(CC(=O)O)CC(=O)O)CC(=O)O [EGTA]
[1]
  inhibition of ligand-dependent chondrogenesis: not

## [Na+].[Na+].[Na+].[O]=[V]([O-])([O-])[O-] [Na3VO4]
[1]
  inhibition of ligand-dependent chondrogenesis: not

## CCCC(=O)Nc1ncnc2c1ncn2[C@@H]1O[C@@H]2COP(=O)(O)O[C@H]2[C@H]1OC(=O)CCC [dibutyryl-cAMP]
[1]
  inhibition of ligand-dependent chondrogenesis: not

## GDF-5: growth and differentiation factor-5, a member of the bone morphogenetic protein (BMP) family that is involved in joint development
FRC cells [2]
  decrease of type I collagen mRNA expression: about 20%
  increase of aggrecan mRNA expression: ~3
  increase of type II collagen mRNA expression: around 2
Rat limb bud cells
  mesenchymal aggregation and chondrogenesis: stimulates
[3]
  alkaline phosphatase activity: stimulates
FRC cells [4]
  expression level of type II collagen and aggrecan: significant increase
FRC [5]; 1x10^5 cells per implant
  expression of aggrecan and type II collagen (RT-PCR): induced expression
FRC [5]; histology
  cellular morphology of FRC (alcian blue staining, cell shape): marked changes in cellular morphology
FRC cells [6]; FRC cells cultured in the absence of type I collagen
  expression of type II collagen or aggrecan: fails to stimulate expression
FRC cells [6]; FRC cultured with type I collagen
  steady state level of type II collagen and aggrecan: significant increase
[7]
  binding to heterodimer of receptor for BMPs: binds
[8]; ECM-coated plastic plates (0.01% w/v), 21 days
  formation of chondrogenic cell aggregate binding alcian blue stain: stimulated the formation of chondrogenic cell aggregate
[8]; FRC cultured in the presence of vehicle alone, type IV collagen or fibronectin, 21 days
  formation of characteristic nodules: fails to stimulate the formation of characteristic nodules
[8]; FRC's plated on fibronectin, type IV collagen or tissue culture plastic, 3 weeks
  chondrogenesis: failed to stimulate chondrogenesis
[8]; FRC's plated on type I or type II collagen, 3 weeks
  chondrogenic nodule formation: stimulated chondrogenic nodule formation
Sprague-Dawley rats; CN/HA matrices loaded with 1, 5 and 50 μg, intramuscular in rats
  alkaline phosphatase activity and chondrogenesis: dose-depended increase
Sprague-Dawley rats; mineralized collagen combined with rhGDF-5, intramuscular in rats
  chondrogenesis and full terminal differentiation: very little evidence
MC3T3-E1 cells
  alkaline phosphatase activity: fails to stimulate

## IGF-I: growth factor
FRC [9]
  stimulation of chondrogenesis: failed to stimulate chondrogenesis

## IGF-II: growth factor
FRC [9]
  stimulation of chondrogenesis: failed to stimulate chondrogenesis

## TGFb
FRC [9]
  stimulation of chondrogenesis: completely failed to stimulate chondrogenesis

## bFGF: growth factor
FRC [9]
  stimulation of chondrogenesis: failed to stimulate chondrogenesis
